The values below come from patent US10517867B2, “Posaconazole derivative, pharmaceutical composition and use thereof” (priority 2016, dated 2019).

Broadly, the solubility is the dissolved amount per volume that the medium holds. High values mean much dissolved substance, low ones little dissolved substance. Broadly, the Solubility is how much of the substance goes into solution per volume. A lower Solubility goes with little dissolved substance.

The first series can be described thus: Determination of solubility in deionized water (HPLC, external standard). To be noted: 25 °C, water, thermodynamic from solid.
`CC[C@@H](C(C)OC(=O)OC(C)OC(=O)CCCCOP(=O)([O-])[O-])n1ncn(-c2ccc(N3CCN(c4ccc(OC[C@@H]5CO[C@@](Cn6cncn6)(c6ccc(F)cc6F)C5)cc4)CC3)cc2)c1=O.[Na+].[Na+]` (stereo partly drawn) [ST0068] returned a solubility at 30 min greater than 50 mg/mL.

Regarding `CC[C@@H]([C@H](C)O)n1ncn(-c2ccc(N3CCN(c4ccc(OC[C@@H]5CO[C@@](Cn6c[n+](C(C)OC(=O)N(C)c7ncccc7CNC)cn6)(c6ccc(F)cc6F)C5)cc4)CC3)cc2)c1=O` (stereo partly drawn) [ST0037], the solubility at 30 min is greater than 50 mg/mL.

As for `CC[C@@H](C(C)OC(=O)OC(C)OC(=O)COS(=O)(=O)[O-])n1ncn(-c2ccc(N3CCN(c4ccc(OC[C@@H]5CO[C@@](Cn6cncn6)(c6ccc(F)cc6F)C5)cc4)CC3)cc2)c1=O.[Na+]` (stereo partly drawn) [ST0075], the solubility at 30 min was greater than 50 mg/mL.

The compound `CC[C@@H]([C@H](C)OC(=O)OC(C)OC(=O)CCCOP(=O)([O-])[O-])n1ncn(-c2ccc(N3CCN(c4ccc(OC[C@@H]5CO[C@@](Cn6cncn6)(c6ccc(F)cc6F)C5)cc4)CC3)cc2)c1=O.[Na+].[Na+]` (stereo partly drawn) [ST0062] showed a solubility at 30 min greater than 50 mg/mL.

For `CC[C@@H]([C@H](C)OC(=O)OCCOP(=O)([O-])[O-])n1ncn(-c2ccc(N3CCN(c4ccc(OC[C@@H]5CO[C@@](Cn6cncn6)(c6ccc(F)cc6F)C5)cc4)CC3)cc2)c1=O.[Na+].[Na+]` [ST0059], the solubility at 30 min is greater than 50 mg/mL.

As for `CC[C@@H](C(C)OC(=O)OC(C)OC(=O)CCOS(=O)(=O)[O-])n1ncn(-c2ccc(N3CCN(c4ccc(OC[C@@H]5CO[C@@](Cn6cncn6)(c6ccc(F)cc6F)C5)cc4)CC3)cc2)c1=O.[Na+]` (stereo partly drawn) [ST0076], the solubility at 30 min is greater than 50 mg/mL.

Compound `CC[C@@H](C(C)OC(=O)OC(C)OC(=O)CN(C)S(=O)(=O)[O-])n1ncn(-c2ccc(N3CCN(c4ccc(OC[C@@H]5CO[C@@](Cn6cncn6)(c6ccc(F)cc6F)C5)cc4)CC3)cc2)c1=O.[Na+]` (stereo partly drawn) [ST0056] came in with a solubility at 30 min greater than 50 mg/mL.

`CC[C@@H](C(C)OC(=O)OC(C)OC(=O)CCCCCCCOP(=O)([O-])[O-])n1ncn(-c2ccc(N3CCN(c4ccc(OC[C@@H]5CO[C@@](Cn6cncn6)(c6ccc(F)cc6F)C5)cc4)CC3)cc2)c1=O.[Na+].[Na+]` (stereo partly drawn) [ST0069] registered a solubility at 30 min of 43.7 mg/mL.

Consider `CC[C@@H]([C@H](C)OC(=O)OC(C)OC(=O)CCCCCCOS(=O)(=O)[O-])n1ncn(-c2ccc(N3CCN(c4ccc(OC[C@@H]5CO[C@@](Cn6cncn6)(c6ccc(F)cc6F)C5)cc4)CC3)cc2)c1=O.[Na+]` (stereo partly drawn) [ST0081], for which the solubility at 30 min was greater than 50 mg/mL.

Take `CC[C@@H]([C@H](C)OC(=O)OC(C)OC(=O)COP(=O)([O-])[O-])n1ncn(-c2ccc(N3CCN(c4ccc(OC[C@@H]5CO[C@@](Cn6cncn6)(c6ccc(F)cc6F)C5)cc4)CC3)cc2)c1=O.[Na+].[Na+]` (stereo partly drawn) [ST0065]: the solubility at 30 min was greater than 50 mg/mL.

As to `CC[C@@H]([C@H](C)O)n1ncn(-c2ccc(N3CCN(c4ccc(OC[C@@H]5CO[C@@](Cn6c[n+](C(C)OC(=O)SC[C@H](N)C(=O)O)cn6)(c6ccc(F)cc6F)C5)cc4)CC3)cc2)c1=O` (stereo partly drawn) [ST0030], the concentration in solution (solubility at 30 min) came to 21.8 mg/mL.

The compound `CC[C@@H]([C@H](C)OC(=O)OCCOCCOCCOP(=O)([O-])[O-])n1ncn(-c2ccc(N3CCN(c4ccc(OC[C@@H]5CO[C@@](Cn6cncn6)(c6ccc(F)cc6F)C5)cc4)CC3)cc2)c1=O.[Na+].[Na+]` [ST0061] came in with a solubility at 30 min greater than 50 mg/mL.

In turn, `CC[C@@H]([C@H](C)OC(=O)OC(C)OC(=O)C(O)COP(=O)([O-])[O-])n1ncn(-c2ccc(N3CCN(c4ccc(OC[C@@H]5CO[C@@](Cn6cncn6)(c6ccc(F)cc6F)C5)cc4)CC3)cc2)c1=O.[Na+].[Na+]` (stereo partly drawn) [ST0089] yielded a solubility at 30 min of 25.2 mg/mL.

For the compound `CC[C@@H](C(C)OC(=O)OC(C)OC(=O)CCCCCCCCOP(=O)([O-])[O-])n1ncn(-c2ccc(N3CCN(c4ccc(OC[C@@H]5CO[C@@](Cn6cncn6)(c6ccc(F)cc6F)C5)cc4)CC3)cc2)c1=O.[Na+].[Na+]` (stereo partly drawn) [ST0071], the solubility at 30 min is 23.4 mg/mL.

As to `CC[C@@H]([C@H](C)OS(=O)(=O)[O-])n1ncn(-c2ccc(N3CCN(c4ccc(OC[C@@H]5CO[C@@](Cn6cncn6)(c6ccc(F)cc6F)C5)cc4)CC3)cc2)c1=O.[Na+]` [ST0095], the solubility at 30 min is greater than 50 mg/mL.

`CC[C@@H]([C@H](C)O)n1ncn(-c2ccc(N3CCN(c4ccc(OC[C@@H]5CO[C@@](Cn6c[n+](C(C)OC(=O)N(C)c7ncccc7CN)cn6)(c6ccc(F)cc6F)C5)cc4)CC3)cc2)c1=O` (stereo partly drawn) [ST0032] gave a solubility at 30 min of 30.5 mg/mL.

The same series, now with this note: 25±2° C., after 30 min.
On to `CC[C@@H]([C@H](C)OC(=O)OC(C)OC(=O)CN(C)P(=O)([O-])[O-])n1ncn(-c2ccc(N3CCN(c4ccc(OC[C@@H]5CO[C@@](Cn6cncn6)(c6ccc(F)cc6F)C5)cc4)CC3)cc2)c1=O.[Na+].[Na+]` (stereo partly drawn) [ST0054], for which the Solubility was 40.9 mg/mL.

Another series in a line: Solid stability test (stability chamber, HPLC total impurity). Conditions: solid, packaged, 25° C.±2° C., relative humidity 60%±2%. Type of series: physicochemical.
As to `CC[C@@H]([C@H](C)O)n1ncn(-c2ccc(N3CCN(c4ccc(OC[C@@H]5CO[C@@](Cn6c[n+](C(C)OC(=O)OCCS)cn6)(c6ccc(F)cc6F)C5)cc4)CC3)cc2)c1=O` (stereo partly drawn) [ST0036], the “Total impurity increment in 30 days” value came out at 0.87%.

Regarding `CC[C@@H]([C@H](C)O)n1ncn(-c2ccc(N3CCN(c4ccc(OC[C@@H]5CO[C@@](Cn6c[n+](C(C)OC(=O)N(C)c7ncccc7COC(=O)[C@@H](N)[C@@H](C)O)cn6)(c6ccc(F)cc6F)C5)cc4)CC3)cc2)c1=O` (stereo partly drawn) [ST0106], the “Total impurity increment in 30 days” value is on record as 0.32%.

Consider `CC[C@@H]([C@H](C)OC(=O)OC(C)OC(=O)CC(=O)[O-])n1ncn(-c2ccc(N3CCN(c4ccc(OC[C@@H]5CO[C@@](Cn6cncn6)(c6ccc(F)cc6F)C5)cc4)CC3)cc2)c1=O.[Na+]` (stereo partly drawn) [ST0048], for which the “Total impurity increment in 30 days” value worked out at 0.95%.

With `CC[C@@H]([C@H](C)O)n1ncn(-c2ccc(N3CCN(c4ccc(OC[C@@H]5CO[C@@](Cn6c[n+](C(C)OC(=O)N(C)c7ncccc7COC(=O)[C@@H](N)CCC(N)=O)cn6)(c6ccc(F)cc6F)C5)cc4)CC3)cc2)c1=O` (stereo partly drawn) [ST0102], the “Total impurity increment in 30 days” value turned out to be 0.36%.

As to `CC[C@@H](C(C)OC(=O)OC(C)OC(=O)CN(C)C)n1ncn(-c2ccc(N3CCN(c4ccc(OC[C@@H]5CO[C@@](Cn6cncn6)(c6ccc(F)cc6F)C5)cc4)CC3)cc2)c1=O` (stereo partly drawn) [Compound 0058], the “Total impurity increment in 30 days” value came out at 0.47%.

Turning to `CC[C@@H]([C@H](C)O)n1ncn(-c2ccc(N3CCN(c4ccc(OC[C@@H]5CO[C@@](Cn6c[n+](C(C)OC(=O)SCC(=O)[O-])cn6)(c6ccc(F)cc6F)C5)cc4)CC3)cc2)c1=O.[Cl-].[Na+]` (stereo partly drawn) [ST0034], the “Total impurity increment in 30 days” value is recorded as 1.85%.

Consider `CC[C@@H]([C@H](C)O)n1ncn(-c2ccc(N3CCN(c4ccc(OC[C@@H]5CO[C@@](Cn6c[n+](C(C)OC(=O)N(C)c7ncccc7COC(=O)CN)cn6)(c6ccc(F)cc6F)C5)cc4)CC3)cc2)c1=O` (stereo partly drawn) [ST0101], for which the “Total impurity increment in 30 days” value turned out to be 0.47%.

With `CC[C@@H]([C@H](C)O)n1ncn(-c2ccc(N3CCN(c4ccc(OC[C@@H]5CO[C@@](Cn6c[n+](CC(=O)[O-])cn6)(c6ccc(F)cc6F)C5)cc4)CC3)cc2)c1=O.[Cl-].[Na+]` [ST0021], the “Total impurity increment in 30 days” value came to 0.97%.

As to `CC[C@@H]([C@H](C)O)n1ncn(-c2ccc(N3CCN(c4ccc(OC[C@@H]5CO[C@@](Cn6c[n+](C(C)OC(=O)N(C)c7ncccc7COC(=O)[C@@H](N)CC(N)=O)cn6)(c6ccc(F)cc6F)C5)cc4)CC3)cc2)c1=O` (stereo partly drawn) [ST0103], the “Total impurity increment in 30 days” value was determined as 0.29%.

Consider `CC[C@@H]([C@H](C)O)n1ncn(-c2ccc(N3CCN(c4ccc(OC[C@@H]5CO[C@@](Cn6c[n+](C(C)OC(=O)N(C)c7ncccc7COC(=O)[C@@H](N)CO)cn6)(c6ccc(F)cc6F)C5)cc4)CC3)cc2)c1=O` (stereo partly drawn) [ST0105], for which the “Total impurity increment in 30 days” value was found to be 0.34%.
